Key:
Hep G2 cells [1] = assay: Apolipoprotein B secretion inhibitory activity (sandwich ELISA of culture supernatant); type: cell-based; conditions: Homo sapiens, HepG2, test compound 1 μM
Procedure: Test 2: Apolipoprotein B Secretion Inhibitory Activity
The apolipoprotein B secretion inhibitory activity of compounds according to the present invention was examined using human hepatoma-derived cell line, Hep G2.
The test was carried out by partially modifying the method of Nagata et al. (Biochem. Pharmacol., 40, 843 (1990)) and the method of Furukawa et al. (J. Biol. Chem., 267, 22630 (1992)). Specifically, Hep G2 cells were cultivated in a Dulbecco modified Eagles's medium (DMEM) containing 10% fetal calf serum (FCS), 100 units/ml penicillin, and 100 μg/ml streptomycin on a 96-well plate. Thereafter, the medium was replaced by DMEM containing 1% bovine serum albumin. At the same time, the test compound was added to a final concentration of 1 μM, followed by cultivation, or cultivation was carried out without the addition of the test compound. Three hours after the replacement of the medium, acetic acid was added to a final concentration of 1 mM, and cultivation was continued for additional 4 hours. The amount of apolipoprotein B secreted in the supernatant of the culture thus obtained was determined by the sandwich ELISA method. Goat anti-human apolipoprotein B polyclonal antibody (CHEMICON) was used as the primary antibody, and mouse anti-human apolipoprotein B monoclonal antibody peroxydase conjugate (BIOSYS) was used as the secondary antibody.
The inhibition (%) of secretion of apolipoprotein B was calculated by the following equation.
Inhibition (%) of secretion of apolipoprotein B={1−(amount of apolipoprotein B secreted in the presence of test compound)/(amount of apolipoprotein B secreted in the absence of test compound)}×100

Hep G2 cells [2] = assay: Triglyceride biosynthesis inhibitory activity (14C-acetic acid incorporation into triglyceride); type: cell-based; conditions: Homo sapiens, HepG2, test compound 1 μM
Procedure: Test 1: Triglyceride Biosynthesis Inhibitory Activity
The triglyceride biosynthesis inhibitory activity of compounds according to the present invention was examined using human hepatoma-derived cell line, Hep G2.
The test was carried out by partially modifying the method of Nagata et al. (Biochem. Pharmacol., 40, 843 (1990)) and the method of Furukawa et al. (J. Biol. Chem., 267, 22630 (1992)). Specifically, Hep G2 cells were cultivated in a Dulbecco modified Eagles's medium (DMEM) containing 10% fetal calf serum (FCS), 100 units/ml penicillin, and 100 μg/ml streptomycin on a 96-well plate. Thereafter, the medium was replaced by DMEM containing 1% bovine serum albumin. At the same time, the test compound was added to a final concentration of 1 μM, followed by cultivation, or cultivation was carried out without the addition of the test compound. Three hours after the replacement of the medium, ^14C-acetic acid was added to a final concentration of 1 mM, and cultivation was continued for additional 4 hours. After the cells were washed with a phosphate buffer (pH 7.5) containing 150 mM sodium chloride, lipids within the cells were extracted with n-butanol. After the extraction, the extract was evaporated to dryness under a nitrogen stream. The solid obtained by the evaporation to dryness was dissolved in a minor amount of chloroform. The solution was developed by thin layer chromatography (development solvent: petroleum ether/diethyl ether/acetic acid=90/15/3) to separate a ^14C-triglyceride fraction, and the amount of ^14C-triglyceride produced was then determined with a liquid scintillation counter (Beckman, LS-6500).
The inhibition (%) of biosynthesis of triglyceride was calculated by the following equation.
Inhibition of biosynthesis of triglyceride (%)={1−(amount of ^14C-triglyceride produced in the presence of test compound)/(amount of ^14C-triglyceride produced in the absence of test compound)}×100

ddY mice (male) = assay: Acute toxicity test in mice; type: in vivo; conditions: orally administered 200 mg/kg, observed for 8 days
Procedure: (§1) Test 3: Acute Toxicity Test
(§2) For the compound prepared in Example 104, an acute toxicity test was carried out using mice and rats according to a conventional method.

wistar rats (male) = assay: Acute toxicity test in rats; type: in vivo; conditions: orally administered 200 mg/kg, observed for 8 days
Procedure: as §1, §2

Row | SMILES | inhibition at 1 µM (Hep G2 cells [1]) [%] | inhibition at 1 µM (Hep G2 cells [2]) [%] | Change in general conditions, such as weight, in acute toxicity test (ddY mice (male)) | Survival in acute toxicity test (ddY mice (male)) | Change in general conditions, such as weight, in acute toxicity test (wistar rats (male)) | Survival in acute toxicity test (wistar rats (male))
1 | CC(C)N(C(=O)c1cccc(N2CCN(CCC(c3ccccc3)c3ccccc3)CC2)c1)C(C)C [Example 5, N,N-Diisopropyl-3-[4-(3,3-diphenyl-1-propyl)piperazin-1-yl]benzamide] | 92 | 8 | – | – | – | –
2 | O=C1c2cc(N3CCN(CCCCC4(C(=O)NCC(F)(F)F)c5ccccc5-c5ccccc54)CC3)ccc2CCN1CC1CCCCO1 (centres unmarked) [Example 99, 2-(Tetrahydropyran-2-yl)methyl-7-[4-[4-[9-(2,2,2-trifluoroethylcarbamoyl)-9H-fluoren-9-yl]butyl]piperazin-1-yl]-3,4-dihydro-2H-isoquinolin-1-one] | ≥ 80 | 11 | – | – | – | –
3 | C=CCN(CC(F)(F)F)C(=O)C1(CCCCN2CCN(c3ccc4c(c3)C(=O)N(Cc3ccccc3)CC4)CC2)c2ccccc2-c2ccccc21 [Example 102, 7-[4-[4-[9-[Allyl-(2,2,2-trifluoroethyl)carbamoyl]-9H-fluoren-9-yl]butyl]piperazin-1-yl]-2-benzyl-3,4-dihydro-2H-isoquinolin-1-one] | 80 | 89 | – | – | – | –
4 | O=C1c2cc(N3CCN(CCC(c4ccccc4)c4ccccc4)CC3)ncc2CCN1Cc1ccccc1 [Example 104, 2-Benzyl-7-[4-(3,3-diphenyl-1-propyl)piperazin-1-yl]-3,4-dihydro-2H-2,6-naphthyridin-1-one] | 84 | 83 | any change in general conditions, such as a change in weight, did not occur | all the animals survived | any change in general conditions, such as a change in weight, did not occur | all the animals survived
5 | O=c1c2cc(N3CCN(CCC(c4ccccc4)c4ccccc4)CC3)ccc2cnn1Cc1ccccc1 [Example 149, 2-Benzyl-7-[4-(3,3-diphenylpropyl)piperazin-1-yl]-2H-phthalazin-1-one] | 70 | 74 | – | – | – | –

From patent publication US6777414B1, “Nitrogen-containing heterocyclic compounds and benamide compounds and drugs containing the same” (Meiji Seika Kaisha, Ltd., priority 1999, dated 2004)
